Numbered stars: 1 amine (or outer) side, 2 acyl side, 3 side chain; on linkers, the order of the positions; unused ones are H or OH. Side chains are listed from the residue outwards. Peptide text beside a SMILES is read from it. * marks the point of attachment. C18 diacid = O=C(O)CCCCCCCCCCCCCCCCC(=O)*; C16 diacid = O=C(O)CCCCCCCCCCCCCCC(=O)*; γGlu = O=C(O)[C@H](CCC(=O)[*:2])N[*:1]; AEEA = NCCOCCOCC(=O)O
Legend:
glucagon receptor = target: T1, glucagon receptor (Homo sapiens, UniProt P47871); assay: Assay (I) Glucagon activity (cAMP biosensor, FLIPR); type: cell-based
T1 construct: expressed in transfected cells
T1 sequence (P47871 26-477): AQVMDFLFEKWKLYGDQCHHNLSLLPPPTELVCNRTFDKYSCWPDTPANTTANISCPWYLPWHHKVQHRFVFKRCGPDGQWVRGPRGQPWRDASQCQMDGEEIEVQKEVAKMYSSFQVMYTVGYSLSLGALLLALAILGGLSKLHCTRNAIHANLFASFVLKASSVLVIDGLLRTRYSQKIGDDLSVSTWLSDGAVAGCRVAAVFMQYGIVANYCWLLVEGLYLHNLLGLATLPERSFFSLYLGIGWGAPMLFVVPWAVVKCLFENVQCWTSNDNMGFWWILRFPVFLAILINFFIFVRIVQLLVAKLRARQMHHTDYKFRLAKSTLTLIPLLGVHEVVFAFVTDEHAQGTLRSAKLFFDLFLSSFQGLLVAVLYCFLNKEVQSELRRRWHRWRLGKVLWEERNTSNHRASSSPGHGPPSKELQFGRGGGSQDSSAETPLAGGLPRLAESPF

[1] = Assay (X) Chemical stability assessment by RP-UPLC; type: physicochemical; settings: pH 8.15, 14 days at 37° C. vs 5° C., 333 μM

Compound	EC50 (glucagon receptor) [pM]	Chemical stability [Purity loss/14 days 37 C.] [1] [%]
CC(C)C[C@H](NC(=O)[C@H](Cc1c[nH]c2ccccc12)NC(=O)[C@H](CCCCNC(=O)CC[C@H](NC(=O)CC[C@H](NC(=O)COCCOCCNC(=O)COCCOCCNC(=O)CC[C@H](NC(=O)CCCCCCCCCCCCCCCCC(=O)O)C(=O)O)C(=O)O)C(=O)O)NC(=O)[C@@H](NC(=O)[C@H](Cc1ccccc1)NC(=O)[C@H](CC(=O)O)NC(=O)[C@H](CCC(N)=O)NC(=O)[C@H](C)NC(=O)[C@H](CCCNC(=N)N)NC(=O)[C@H](CCCNC(=N)N)NC(=O)[C@@H](NC(=O)[C@H](CC(=O)O)NC(=O)[C@H](CC(C)C)NC(=O)[C@H](Cc1ccc(O)cc1)NC(=O)[C@H](CCCCN)NC(=O)[C@H](CO)NC(=O)[C@H](Cc1ccc(O)cc1)NC(=O)[C@H](CC(=O)O)NC(=O)[C@H](CO)NC(=O)[C@@H](NC(=O)[C@H](Cc1ccccc1)NC(=O)[C@@H](NC(=O)CNC(=O)[C@H](CCC(N)=O)NC(=O)[C@H](CO)NC(=O)[C@@H](N)Cc1c[nH]cn1)[C@@H](C)O)[C@@H](C)O)[C@@H](C)O)C(C)C)C(=O)N[C@@H](CC(C)C)C(=O)N[C@@H](CO)C(=O)N[C@H](C(N)=O)[C@@H](C)O [Example 39, N^ε24-[(4S)-4-carboxy-4-[[(4S)-4-carboxy-4-[[2-[2-[2-[[2-[2-[2-[[(4S)-4-carboxy-4-(17-carboxyheptadecanoylamino)butanoyl]amino]ethoxy]ethoxy]acetyl]amino]ethoxy]ethoxy]acetyl]amino]butanoyl]amino]butanoyl]-[Thr16,Lys24,Leu27,Ser28]-Glucagon amide]	39	7.8
CC(C)C[C@H](NC(=O)[C@H](Cc1ccc(O)cc1)NC(=O)[C@H](CCCNC(=N)N)NC(=O)[C@H](CO)NC(=O)[C@H](Cc1ccc(O)cc1)NC(=O)[C@H](CC(=O)O)NC(=O)[C@H](CO)NC(=O)[C@@H](NC(=O)[C@H](Cc1ccccc1)NC(=O)[C@@H](NC(=O)CNC(=O)[C@H](CCC(N)=O)NC(=O)[C@H](CO)NC(=O)[C@@H](N)Cc1c[nH]cn1)[C@@H](C)O)[C@@H](C)O)C(=O)N[C@@H](CC(=O)O)C(=O)N[C@@H](C)C(=O)N[C@@H](CCCNC(=N)N)C(=O)N[C@@H](CCCNC(=N)N)C(=O)N[C@@H](C)C(=O)N[C@@H](CCC(N)=O)C(=O)N[C@@H](CC(=O)O)C(=O)N[C@@H](Cc1ccccc1)C(=O)N[C@H](C(=O)N[C@@H](CCCCNC(=O)CC[C@H](NC(=O)CC[C@H](NC(=O)CC[C@H](NC(=O)CCCCCCCCCCCCCCC(=O)O)C(=O)O)C(=O)O)C(=O)O)C(=O)N[C@@H](Cc1c[nH]c2ccccc12)C(=O)N[C@@H](CC(C)C)C(=O)N[C@@H](CC(C)C)C(=O)N[C@@H](CO)C(=O)N[C@H](C(=O)O)[C@@H](C)O)C(C)C [Example 72, N^ε24-[(4S)-4-carboxy-4-[[(4S)-4-carboxy-4-[[(4S)-4-carboxy-4-(15-carboxypentadecanoylamino)butanoyl]amino]butanoyl]amino]butanoyl]-[Arg12,Ala16,Lys24,Leu27,Ser28]-Glucagon] (H-HSQGTFTSDYSRYLDARRAQDFVK([γGlu-γGlu-γGlu-C16 diacid])WLLST-OH)	16	6.1
CC(C)C[C@H](NC(=O)[C@H](Cc1ccc(O)cc1)NC(=O)[C@H](CCCCN)NC(=O)[C@H](CO)NC(=O)[C@H](Cc1ccc(O)cc1)NC(=O)[C@H](CC(=O)O)NC(=O)[C@H](CO)NC(=O)[C@@H](NC(=O)[C@H](Cc1ccccc1)NC(=O)[C@@H](NC(=O)CNC(=O)[C@H](Cc1c[nH]cn1)NC(=O)[C@H](CO)NC(=O)[C@@H](N)Cc1c[nH]cn1)[C@@H](C)O)[C@@H](C)O)C(=O)N[C@@H](CC(=O)O)C(=O)N[C@@H](CCC(=O)O)C(=O)N[C@@H](CCCNC(=N)N)C(=O)N[C@@H](CCCNC(=N)N)C(=O)N[C@@H](C)C(=O)N[C@@H](CCCCN)C(=O)N[C@@H](CC(=O)O)C(=O)N[C@@H](Cc1ccccc1)C(=O)N[C@H](C(=O)N[C@@H](CCCCNC(=O)CC[C@H](NC(=O)CC[C@H](NC(=O)COCCOCCNC(=O)COCCOCCNC(=O)CC[C@H](NC(=O)CCCCCCCCCCCCCCCCC(=O)O)C(=O)O)C(=O)O)C(=O)O)C(=O)N[C@@H](Cc1c[nH]c2ccccc12)C(=O)N[C@@H](CC(C)C)C(=O)N[C@@H](CC(C)C)C(=O)N[C@@H](CO)C(=O)N[C@H](C(=O)O)[C@@H](C)O)C(C)C [Example 4, N^ε24-[(4S)-4-carboxy-4-[[(4S)-4-carboxy-4-[[2-[2-[2-[[2-[2-[2-[[(4S)-4-carboxy-4-(17-carboxyheptadecanoylamino)butanoyl]amino]ethoxy]ethoxy]acetyl]amino]ethoxy]ethoxy]acetyl]amino]butanoyl]amino]butanoyl]-[His^3,Glu^16,Lys^20,Lys^24,Leu^27,Ser^28]-Glucagon] (H-HSHGTFTSDYSKYLDERRAKDFVK([γGlu-γGlu-AEEA-AEEA-γGlu-C18 diacid])WLLST-OH)	237	7.5
CC(C)C[C@H](NC(=O)[C@H](CC(C)C)NC(=O)[C@H](Cc1c[nH]c2ccccc12)NC(=O)[C@H](CCCCNC(=O)CC[C@H](NC(=O)CC[C@H](NC(=O)COCCOCCNC(=O)COCCOCCNC(=O)CC[C@H](NC(=O)CCCCCCCCCCCCCCCCC(=O)O)C(=O)O)C(=O)O)C(=O)O)NC(=O)[C@@H](NC(=O)[C@H](Cc1ccccc1)NC(=O)[C@H](CC(=O)O)NC(=O)[C@H](CCC(N)=O)NC(=O)[C@H](C)NC(=O)[C@H](CCCNC(=N)N)NC(=O)[C@H](CCCNC(=N)N)NC(=O)[C@H](CC(C)C)NC(=O)[C@H](CC(=O)O)NC(=O)[C@H](CC(C)C)NC(=O)[C@H](Cc1ccc(O)cc1)NC(=O)[C@H](CCCNC(=N)N)NC(=O)[C@H](CO)NC(=O)[C@H](Cc1ccc(O)cc1)NC(=O)[C@H](CC(=O)O)NC(=O)[C@H](CO)NC(=O)[C@@H](NC(=O)[C@H](Cc1ccccc1)NC(=O)[C@@H](NC(=O)CNC(=O)[C@H](CCC(N)=O)NC(=O)[C@H](CO)NC(=O)[C@@H](N)Cc1c[nH]cn1)[C@@H](C)O)[C@@H](C)O)C(C)C)C(=O)N[C@@H](C)C(=O)N[C@H](C(=O)O)[C@@H](C)O [Example 87, N^ε24-[(4S)-4-carboxy-4-[[(4S)-4-carboxy-4-[[2-[2-[2-[[2-[2-[2-[[(4S)-4-carboxy-4-(17-carboxyheptadecanoylamino)butanoyl]amino]ethoxy]ethoxy]acetyl]amino]ethoxy]ethoxy]acetyl]amino]butanoyl]amino]butanoyl]-[Arg12,Leu16,Lys24,Leu27,Ala28]-Glucagon] (H-HSQGTFTSDYSRYLDLRRAQDFVK([γGlu-γGlu-AEEA-AEEA-γGlu-C18 diacid])WLLAT-OH)	253	5.8
CC(C)C[C@H](NC(=O)[C@H](Cc1ccc(O)cc1)NC(=O)[C@H](CCCNC(=N)N)NC(=O)[C@H](CO)NC(=O)[C@H](Cc1ccc(O)cc1)NC(=O)[C@H](CC(=O)O)NC(=O)[C@H](CO)NC(=O)[C@@H](NC(=O)[C@H](Cc1ccccc1)NC(=O)[C@@H](NC(=O)CNC(=O)[C@H](CCC(N)=O)NC(=O)[C@H](CO)NC(=O)[C@@H](N)Cc1c[nH]cn1)[C@@H](C)O)[C@@H](C)O)C(=O)N[C@@H](CC(=O)O)C(=O)N[C@@H](C)C(=O)N[C@@H](CCCNC(=N)N)C(=O)N[C@@H](CCCNC(=N)N)C(=O)N[C@@H](C)C(=O)N[C@@H](CCC(N)=O)C(=O)N[C@@H](CC(=O)O)C(=O)N[C@@H](Cc1ccccc1)C(=O)N[C@H](C(=O)N[C@@H](CCCCNC(=O)CC[C@H](NC(=O)CC[C@H](NC(=O)COCCOCCNC(=O)COCCOCCNC(=O)CC[C@H](NC(=O)CCCCCCCCCCCCCCC(=O)O)C(=O)O)C(=O)O)C(=O)O)C(=O)N[C@@H](Cc1c[nH]c2ccccc12)C(=O)N[C@@H](CC(C)C)C(=O)N[C@@H](CC(C)C)C(=O)N[C@@H](CO)C(=O)N[C@H](C(=O)O)[C@@H](C)O)C(C)C [Example 84, N^ε24-[(4S)-4-carboxy-4-[[(4S)-4-carboxy-4-[[2-[2-[2-[[2-[2-[2-[[(4S)-4-carboxy-4-(15-carboxypentadecanoylamino)butanoyl]amino]ethoxy]ethoxy]acetyl]amino]ethoxy]ethoxy]acetyl]amino]butanoyl]amino]butanoyl]-[Arg12,Ala16,Lys24,Leu27,Ser28]-Glucagon] (H-HSQGTFTSDYSRYLDARRAQDFVK([γGlu-γGlu-AEEA-AEEA-γGlu-C16 diacid])WLLST-OH)	22	10.7
CC(C)C[C@H](NC(=O)[C@H](Cc1ccc(O)cc1)NC(=O)[C@H](CCCNC(=N)N)NC(=O)[C@H](CO)NC(=O)[C@H](Cc1ccc(O)cc1)NC(=O)[C@H](CC(=O)O)NC(=O)[C@H](CO)NC(=O)[C@@H](NC(=O)[C@H](Cc1ccccc1)NC(=O)[C@@H](NC(=O)CNC(=O)[C@H](CCC(N)=O)NC(=O)[C@H](CO)NC(=O)[C@@H](N)Cc1c[nH]cn1)[C@@H](C)O)[C@@H](C)O)C(=O)N[C@@H](CC(=O)O)C(=O)N[C@@H](C)C(=O)N[C@@H](CCCNC(=N)N)C(=O)N[C@@H](CCCNC(=N)N)C(=O)N[C@@H](C)C(=O)N[C@@H](CCC(N)=O)C(=O)N[C@@H](CC(=O)O)C(=O)N[C@@H](Cc1ccccc1)C(=O)N[C@H](C(=O)N[C@@H](CCCCNC(=O)CC[C@H](NC(=O)CC[C@H](NC(=O)CC[C@H](NC(=O)CC[C@H](NC(=O)CCCCCCCCCCCCCCCCC(=O)O)C(=O)O)C(=O)O)C(=O)O)C(=O)O)C(=O)N[C@@H](Cc1c[nH]c2ccccc12)C(=O)N[C@@H](CC(C)C)C(=O)N[C@@H](CC(C)C)C(=O)N[C@@H](CO)C(=O)N[C@H](C(=O)O)[C@@H](C)O)C(C)C [Example 96, N^ε24-[(4S)-4-carboxy-4-[[(4S)-4-carboxy-4-[[(4S)-4-carboxy-4-[[(4S)-4-carboxy-4-(17-carboxyheptadecanoylamino)butanoyl]amino]butanoyl]amino]butanoyl]amino]butanoyl]-[Arg12,Ala16,Lys24,Leu27,Ser28]-Glucagon] (H-HSQGTFTSDYSRYLDARRAQDFVK([γGlu-γGlu-γGlu-γGlu-C18 diacid])WLLST-OH; N-terminus and C-terminus assumed)	62	4.5
